In the NIST ThermoML archive (doi:10.1021/je060429r):
Where “and” joins values, the source holds several entries; their conditions need not be identical. Equal values may be shown once.

Details: Transpiration method

Oc1cccc(Cl)c1 [3-chlorophenol]
Details | vapor or sublimation pressure [kPa]
275.3 K, Crystal | 0.00082
276.6 K, Crystal | 0.00095
278.3 K, Crystal | 0.00115
280.3 K, Crystal | 0.00149
283.2 K, Crystal | 0.00212
285.2 K, Crystal | 0.00262
288.3 K, Crystal | 0.00366
291.3 K, Crystal | 0.00509
294.3 K, Crystal | 0.00721
297.3 K, Crystal | 0.00999
300.3 K, Crystal | 0.01323
302.2 K, Crystal | 0.01626
306 K, Crystal | 0.02395
308.3 K, Liquid | 0.0294
311.1 K, Liquid | 0.0361
314.2 K, Liquid | 0.0455
317.2 K, Liquid | 0.058
320.3 K, Liquid | 0.073
323.2 K, Liquid | 0.0905
326.2 K, Liquid | 0.1116
329.2 K, Liquid | 0.1366
332.2 K, Liquid | 0.1669
335.2 K, Liquid | 0.2002

Oc1ccccc1Cl [2-chlorophenol]
Liquid
Details | vapor or sublimation pressure [kPa]
288.4 K | 0.0863
291.3 K | 0.1102
294.3 K | 0.1378
297.3 K | 0.1681
300.3 K | 0.2059
303.3 K | 0.2559
306.2 K | 0.3083
309.2 K | 0.3763
312.2 K | 0.4633
315.2 K | 0.5579
318.2 K | 0.6649
321.2 K | 0.7992

Oc1c(Cl)c(Cl)c(Cl)c(Cl)c1Cl [pentachlorophenol]
Crystal
Details | vapor or sublimation pressure [kPa]
348.1 K | 0.00127
353.1 K | 0.00206
358 K | 0.00304
363 K | 0.00483
367.8 K | 0.00681
371.9 K | 0.00975
378.1 K | 0.01517
383 K | 0.02172
388.9 K | 0.03268
393.2 K | 0.04374
397.8 K | 0.06045
399.8 K | 0.07143
403.2 K | 0.09099

Oc1cccc(Cl)c1Cl [2,3-dichlorophenol]
Details | vapor or sublimation pressure [kPa]
294.3 K, Crystal | 0.0078
297.3 K, Crystal | 0.0107
300.2 K, Crystal | 0.0149
303.2 K, Crystal | 0.0192
306.2 K, Crystal | 0.0267
309.2 K, Crystal | 0.0351
312.2 K, Crystal | 0.0482
315.2 K, Crystal | 0.0633
318.1 K, Crystal | 0.0798
321.2 K, Crystal | 0.1081
324.3 K, Crystal | 0.1429
327.3 K, Crystal | 0.1835
331.2 K, Liquid | 0.2449
334.3 K, Liquid | 0.2946
337.2 K, Liquid | 0.3508
340.3 K, Liquid | 0.4132
343.2 K, Liquid | 0.4874
346.2 K, Liquid | 0.5745
349.2 K, Liquid | 0.6662
352.1 K, Liquid | 0.7881
355.2 K, Liquid | 0.9247
358.2 K, Liquid | 1.078

Oc1ccc(Cl)cc1 [4-chlorophenol]
Details | vapor or sublimation pressure [kPa]
283.2 K, Crystal | 0.00132
288.2 K, Crystal | 0.00236
291.2 K, Crystal | 0.00332
294.2 K, Crystal | 0.00459
297.2 K, Crystal | 0.00622
300.2 K, Crystal | 0.00839
303.2 K, Crystal | 0.01163
306.2 K, Crystal | 0.01571
309.2 K, Crystal | 0.02076
311.2 K, Crystal | 0.02535
313.2 K, Crystal | 0.03092
318.2 K, Liquid | 0.0485
321.2 K, Liquid | 0.0615
324.2 K, Liquid | 0.0754
327.2 K, Liquid | 0.0926
330.2 K, Liquid | 0.1141
333.2 K, Liquid | 0.1388
336.2 K, Liquid | 0.1699
339.2 K, Liquid | 0.2022
342.2 K, Liquid | 0.2534
345.2 K, Liquid | 0.3058
348.2 K, Liquid | 0.3684
351.2 K, Liquid | 0.4409

Oc1c(Cl)cc(Cl)cc1Cl [2,4,6-trichlorophenol]
Details | vapor or sublimation pressure
299.4 K, Crystal | 0.00177 kPa
302.3 K, Crystal | 0.00245 kPa
305.2 K, Crystal | 0.00319 kPa
308.3 K, Crystal | 0.0044 kPa
311.3 K, Crystal | 0.00593 kPa
314.3 K, Crystal | 0.00805 kPa
316.8 K, Crystal | 0.01044 kPa and 0.01061 kPa
317.3 K, Crystal | 0.01125 kPa
320.3 K, Crystal | 0.015 kPa
323.3 K, Crystal | 0.02013 kPa
326.3 K, Crystal | 0.02645 kPa
329.4 K, Crystal | 0.03488 kPa
332.5 K, Crystal | 0.04531 kPa
335.5 K, Crystal | 0.05882 kPa
338.2 K, Crystal | 0.07513 kPa
340.3 K, Crystal | 0.08978 kPa
342.8 K, Liquid | 0.1027 kPa
343.2 K, Liquid | 0.1041 kPa
343.8 K, Liquid | 0.1081 kPa
345.2 K, Liquid | 0.1191 kPa
346.3 K, Liquid | 0.1271 kPa
347.3 K, Liquid | 0.1317 kPa
348.3 K, Liquid | 0.1419 kPa
348.9 K, Liquid | 0.1495 kPa
350.4 K, Liquid | 0.1613 kPa
351.4 K, Liquid | 0.1716 kPa
353.3 K, Liquid | 0.1898 kPa
353.9 K, Liquid | 0.1975 kPa
354.4 K, Liquid | 0.2102 kPa
356.4 K, Liquid | 0.2268 kPa
357.5 K, Liquid | 0.2519 kPa
359 K, Liquid | 0.2809 kPa
359.4 K, Liquid | 0.2784 kPa
360.5 K, Liquid | 0.2994 kPa
362.5 K, Liquid | 0.3322 kPa
363.2 K, Liquid | 0.3412 kPa
364.1 K, Liquid | 0.3663 kPa
365.5 K, Liquid | 0.3878 kPa
366.3 K, Liquid | 0.4095 kPa
368.1 K, Liquid | 0.4623 kPa
368.6 K, Liquid | 0.463 kPa
369.4 K, Liquid | 0.4939 kPa
372.4 K, Liquid | 0.5714 kPa
373.2 K, Liquid | 0.6103 kPa and 0.6087 kPa
375.4 K, Liquid | 0.6794 kPa

Oc1ccc(Cl)cc1Cl [2,4-dichlorophenol]
Details | vapor or sublimation pressure [kPa]
278.2 K, Crystal | 0.00175
283.3 K, Crystal | 0.00312
289.3 K, Crystal | 0.00626
294.4 K, Crystal | 0.01082
297.3 K, Crystal | 0.01464
300.4 K, Crystal | 0.02025
303.3 K, Crystal | 0.02801
306.3 K, Crystal | 0.03848
309.4 K, Crystal | 0.05208
312.4 K, Crystal | 0.06848
315.2 K, Crystal | 0.09034
317.2 K, Liquid | 0.1061
320.3 K, Liquid | 0.1326
323.2 K, Liquid | 0.1612
326.1 K, Liquid | 0.1933
329.2 K, Liquid | 0.2419
332.2 K, Liquid | 0.2831
335.2 K, Liquid | 0.3393
338.2 K, Liquid | 0.4027
341.2 K, Liquid | 0.4846
344.2 K, Liquid | 0.5835

Oc1c(Cl)cccc1Cl [2,6-dichlorophenol]
Details | vapor or sublimation pressure [kPa]
298.5 K, Crystal | 0.0073
301.6 K, Crystal | 0.01
304.6 K, Crystal | 0.0137
307.4 K, Crystal | 0.0183
310.4 K, Crystal | 0.0245
313.4 K, Crystal | 0.0331
316.4 K, Crystal | 0.0437
319.4 K, Crystal | 0.0591
322.4 K, Crystal | 0.0774
325.4 K, Crystal | 0.1006
328.4 K, Crystal | 0.1312
331.3 K, Crystal | 0.1685
341.2 K, Liquid | 0.3444
344.7 K, Liquid | 0.4173
347.3 K, Liquid | 0.4838
350.3 K, Liquid | 0.5727
353.3 K, Liquid | 0.6745
356.3 K, Liquid | 0.7745
360.3 K, Liquid | 0.9734
363.3 K, Liquid | 1.143
366.3 K, Liquid | 1.315
371.4 K, Liquid | 1.664

Oc1ccc(Cl)c(Cl)c1 [3,4-dichlorophenol]
Details | vapor or sublimation pressure [kPa]
291.4 K, Crystal | 0.00027
294.3 K, Crystal | 0.0004
300.3 K, Crystal | 0.00086
303.5 K, Crystal | 0.00121
306.7 K, Crystal | 0.00177
309.5 K, Crystal | 0.00247
314.3 K, Crystal | 0.00423
317.2 K, Crystal | 0.00587
320.4 K, Crystal | 0.00806
323.3 K, Crystal | 0.01069
326.3 K, Crystal | 0.01474
329.3 K, Crystal | 0.01992
332.3 K, Crystal | 0.02618
335.3 K, Crystal | 0.03423
337.3 K, Crystal | 0.04096
341.3 K, Liquid | 0.057
344.3 K, Liquid | 0.0703
347.2 K, Liquid | 0.0854
350.3 K, Liquid | 0.1055
353.2 K, Liquid | 0.127
356.3 K, Liquid | 0.1544
359.2 K, Liquid | 0.1858
362.2 K, Liquid | 0.223
365.4 K, Liquid | 0.2696
368.4 K, Liquid | 0.3217

Clc1c(Cl)c(Cl)c(Cl)c(Cl)c1Cl [hexachlorobenzene]
Crystal
Details | vapor or sublimation pressure [kPa]
358 K | 0.00144
362.9 K | 0.00216
368.9 K | 0.00373
373.1 K | 0.00519
377.8 K | 0.00771
382.9 K | 0.01123
389 K | 0.01836
392.8 K | 0.0238
397.9 K | 0.03341
402.8 K | 0.04901

Oc1cc(Cl)ccc1Cl [2,5-dichlorophenol]
Details | vapor or sublimation pressure [kPa]
294.3 K, Crystal | 0.0089
297.3 K, Crystal | 0.0122
300.4 K, Crystal | 0.0168
303.3 K, Crystal | 0.0223
306.3 K, Crystal | 0.0302
309.2 K, Crystal | 0.0399
312.2 K, Crystal | 0.0532
315.2 K, Crystal | 0.0708
318.3 K, Crystal | 0.0944
321.3 K, Crystal | 0.1257
324.4 K, Crystal | 0.1636
327.4 K, Crystal | 0.2133
333.3 K, Liquid | 0.3198
337.2 K, Liquid | 0.3996
340.2 K, Liquid | 0.4726
343.2 K, Liquid | 0.5513
346.2 K, Liquid | 0.6514
349.2 K, Liquid | 0.7643
352.2 K, Liquid | 0.894
355.2 K, Liquid | 1.048
358.1 K, Liquid | 1.204
361.2 K, Liquid | 1.403
